*1 amine or outer side, *2 acyl side, *3 side chain or, on linkers, in order; H or OH if unused. Where a SMILES comes first, the peptide text is derived from it. Bridges are numbered along the chain shown (N, C = ends). Roman numbers before positions name the chains, in order. [ ]: non-standard residue; d: D form. Actinocin(9to1) = Cc1c2oc3c(C)ccc(C(=O)[*:1])c3nc-2c(C(=O)[*:2])c(N)c1=O; NMeV = CN[C@H](C(=O)O)C(C)C; Sar = CNCC(=O)O
Experiments:
H1299 [1] = test: 2D cell proliferation assay (Alamar Blue), H1299; format: cell-based, human
Excerpt: (§1) Nsl-8 was subjected to 2D cell proliferation assays using four NSCLC cell lines (A549 (human adenocarcinomic alveolar basal epithelial cells with k-ras gene mutation), H1299 (human non-small cell lung carcinoma cell line with p53 mutation), H460 (human non-small cell lung carcinoma cell line with k-ras gene mutation), and HCC827 (human NSCLC cells with EGFR mutation of deletion from E746 to A750)) and the results were presented in Table 2. There were eight concentrations used for each drug for determining its IC50. […]. Actinomycin D was a chemotherapeutic drug simply used as a quality control for all the experiments.
(§2) In the 2D cell proliferation assay, cells were cultured in DMEM containing 10% FCS and Penicillin/Streptomycin. For the assays, cells were seeded in 150 μL medium on a 96-well cell culture plate and incubated at 37° C. overnight before the compounds were added. Compounds were prepared as predilution which was 16 fold concentrated to the final assay concentration. A day after cell seeding, 10 μL of prediluted compounds was added to the cells (1:16 dilution). Treatment of cells with 0.1% DMSO or 1% DMSO (for the two top concentrations of nsl-8) and 1.0E-05 M Staurosporine was served as high control (100% viability) and low control (0% viability), respectively. Measurement of the impact of compounds on cell viability was performed as follows: 5000 cells (A549 and HCC827) or 2500 cells (H1299 and H460) were seeded in the inner wells of 96-well-plates in 150 μL complete medium. Next day, compounds were added to the medium to reach the final concentration and then incubated at 37° C. in 5% or 10% CO2 depending on the medium for 72 h. Subsequently 10 μL Alamar Blue reagent was added and fluorescence at 590 nm was measured after 5 h incubation at 37° C. in 5% CO2 using a fluorometer.
(§3) Raw data were converted into percent cell viability relative to high control (solvent 0.1% DMSO or 1% DMSO for the two top concentrations of drug nsl-8) and low control (1.0E-05 M Staurosporine), which were set to 100% and 0%, respectively.

H460 [2] = test: 2D cell proliferation assay (Alamar Blue), H460; format: cell-based, human
Excerpt: as §1, §2, §3

HCC827 [3] = test: 2D cell proliferation assay (Alamar Blue), HCC827; format: cell-based, human; settings: HCC827, 72 h
Protocol: There were eight concentrations used for each drug for determining its IC50. […] Actinomycin D was a chemotherapeutic drug simply used as a quality control for all the experiments.
as §2, with “Compounds were prepared as predilution which was 16 fold concentrated to the final assay concentration.” left out, “h.” for “h. Subsequently 10 μL Alamar Blue reagent was added and fluorescence at 590 nm was measured after 5 h incubation at 37° C. in 5% CO2 using a fluorometer.”
as §3

H1299 [4] = test: 3D cell proliferation assay (soft agar), H1299; format: cell-based, human; settings: 3D soft agar
Protocol: (§4) Drug nsl-8 was further subjected to a 3D cell proliferation assay for assessing its potential in inhibiting the growth of NSCLC tumors. The same four NSCLC cell lines used in 2D proliferation assays were grown in soft agar and the drug was added after the agar has solidified. The drug added cells were then incubated several days until colonies have formed in the solvent control. Subsequently, Alamar Blue which was a cell viability reagent was added and the corresponding fluorescence released was measured as an indirect quantification of colony growth in soft agar.
(§5) For each cell line, some 96 well culture plates were prepared. 100 μL of the soft agar bottom layer (0.6% final concentration in complete medium) was poured and left to solidify. 50 μL of the soft agar top layer (0.4% final concentration) containing the corresponding cells and cell number were then added on top, solidified and such 96 well plates were incubated overnight at 37° C. in 10% CO2. Next day, drugs were added at indicated final concentrations into the inner wells of the plate. Subsequently, the assays were incubated in cell culture incubators for the indicated period of time. Finally, the assays were developed using Alamar Blue and upon 3-5 h of incubation at 37 ° C. fluorescence intensity was determined (excitation: 560 nm, emission: 590 nm). […]

H460 [5] = test: 3D cell proliferation assay (soft agar), H460; format: cell-based, human; settings: 3D soft agar
Protocol: as §4, §5

A549 [6] = test: 3D cell proliferation assay (soft agar), A549; format: cell-based, human; settings: 3D soft agar
Protocol: as §4, §5

HCC827 [7] = test: 3D cell proliferation assay (soft agar), HCC827; format: cell-based, human; settings: 3D soft agar
Protocol: as §4, §5

A549 [8] = test: 2D cell proliferation assay (Alamar Blue), A549; format: cell-based, human; settings: A549, 72 h
Excerpt: as §1, §2, §3

A549 implanted tumors = test: Subcutaneous A549 xenograft model, groups 2a-2c, o.p.; settings: for Tumor inhibition rate (%): A549, o.p. once daily, NSL-8 70 mpk, Tarceva 20 mpk
Protocol: The antitumor efficacy of the drug lead nsl-8 searched was studied using the subcutaneous xenografted A549 and HCC827 lung cancer tumor models in vivo. […] Mice were maintained in individual ventilated cages (IVC, max. 4 mice/cage) at constant temperature and humidity. Animal weights were determined three times (Monday, Wednesday and Friday) for groups 1a and 1b or two times (Monday and Thursday) for groups 2a-2c and 3a-3c animals. Animal behaviour was monitored daily.
On day 0, either 2×10^6 A549 or 2×10^6 HCC827 tumor cells in 100 μL PBS were implanted into the subcutaneous space of the left flank of all corresponding BALB/c nude and SCID mice, respectively. In the following, tumor sizes were determined by caliper measurement. Tumor sizes were calculated according to the formula W^2×Lg/2 (Lg=length and W=the perpendicular width of the tumor, L>W). On day 48 or 30, after mean tumor volumes had reached approx. 100 mm^3, the corresponding tumor-bearing animals were randomized into 2 groups of 8 (A549 model: groups 1a and 1b) or 10 animals (A549 model: groups 2a and 2b) according to tumor sizes. On day 24 or 28, after mean tumor volumes had reached approx. 100 mm^3, the corresponding tumor-bearing animals were randomized into 2 groups of 10 animals (HCC827 model: groups 3a and 3b) according to tumor sizes. […] The percentage of tumor growth inhibition (TGI) was calculated using the following formula: […]
where T and C represent the mean tumor volume of the treatment and the control group, respectively.
The solution was aliquoted into several 15 ml sterile centrifuge tubes in 650 μl quantity per tube and then stored frozen at −80° C. until use. […] Animals of group 1b received 40 mg/kg nsl-8 dosage solution once daily through i.p. route on days 48-52 and 62-66, while those of groups 2b and 3b received 70 mg/kg nsl-8 dosage solution once daily through o.p. route on days 1-14 (group 2b) and days 1-14 (group 3b), respectively (Table 4).
Groups 1a and 1b (A549 model) were terminated on day 69, while groups 2a-2c (A549 model) and 3a-3c (HCC827 model) were terminated on day 15. At necropsy, animals were killed by cervical dislocation. Primary tumor weights and volumes were determined. The tumor volume and weight were analysed using descriptive data analysis (Mean, SEM, Median). Statistical analysis of efficacy data was performed using the unpaired t-test. All the data analyses were performed using GraphPad Prism 5 from GraphPad Software, Inc., San Diego, USA.
The serum level of blood urea nitrogen (BUN) was measured for assessing the renal function while those of alanine aminotransferase (ALT) and aspartate aminotransferase (AST) were measured using Ektachem DT system (Johnson & Johnson Clinical Diagnostics) for assessing the liver function. The EDTA treated anticoagulated blood samples were also collected for making a complete peripheral blood count by using a Hematology Analyzer (Sysmex, XT-1800i).
For this study, 0.161 ml nsl-8 stock solution made in DMSO was mixed with 1.339 ml 0.9% w/v saline so that the volume of a final dosage solution prepared to feed an animal was 1.5 ml and containing 10% DMSO. Therefore, both administration routes and vehicles used in treating groups 2a-2b and 3a-3b animals were quite different from that used in treating groups 1a-1b animals.

Question: Which results are given for `Cc1c2oc3c(C)ccc(C(=O)N[C@@H]4C(=O)N[C@H](C(C)C)C(=O)N5CCC[C@H]5C(=O)N(C)CC(=O)N(C)[C@@H](C(C)C)C(=O)O[C@@H]4C)c3nc-2c(C(=O)N[C@@H]2C(=O)N[C@H](C(C)C)C(=O)N3CCC[C@H]3C(=O)N(C)CC(=O)N(C)[C@@H](C(C)C)C(=O)O[C@@H]2C)c(N)c1=O` [Actinomycin D] (I: T[dV]P[Sar][NMeV] / II: T[dV]P[Sar][NMeV]; ester I:1-I:C, II:1-II:C; linker I:N-II:N via Actinocin(9to1))?
Answer: IC50 (H1299 [1]; 2D, H1299, 72 h, read-out: IC50): 0.31 nM; IC50 (H460 [2]; 2D, H460, 72 h, read-out: IC50): 0.42 nM; IC50 (HCC827 [3]): 12 nM; IC50 (H1299 [4]): 0.82 nM; IC50 (H460 [5]): 0.67 nM; IC50 (A549 [6]): 0.84 nM; IC50 (HCC827 [7]): 0.24 nM; IC50 (A549 [8]; 2D, read-out: IC50): 0.92 nM

Question: Which IC50 (H1299 [1]; Homo sapiens, NCI-H1299, 72 h) does the source give for `C#Cc1cccc(Nc2ncnc3cc(OCCOC)c(OCCOC)cc23)c1` [Erlotinib] here?
Answer: The IC50 was greater than 10000 nM.

Question: And the IC50 (H460 [2]; Homo sapiens, NCI-H460, 72 h)?
Answer: The IC50 was greater than 10000 nM.

Question: What about the “cell counts of white blood cell, red blood cell, or platelet versus vehicle” value (A549 implanted tumors; A549 model, peripheral blood at end-point, nsl-8 70 mg/kg, Tarceva 20 mg/kg o.p.) of the same compound?
Answer: The value was “no significant difference”.

Question: What about the “serum levels of BUN, ALT, and AST among treatment groups” value (A549 implanted tumors; A549 model, upon completion of the experiments) of the same compound?
Answer: The value was “no significant difference”.

Question: And the “Tumor inhibition rate (%)” value (A549 implanted tumors; Day 0)?
Answer: Its value is 0%.

Question: And the “Tumor inhibition rate (%)” value (A549 implanted tumors; Day 3)?
Answer: Its value is −16.7%.

Question: And the “Tumor inhibition rate (%)” value (A549 implanted tumors; Day 7)?
Answer: The value was −19.0%.

Question: What about the “Tumor inhibition rate (%)” value (A549 implanted tumors; Day 10) of the same compound?
Answer: Its value is −22.0%.

Question: And the “Tumor inhibition rate (%)” value (A549 implanted tumors; Day 14)?
Answer: The value was −29.6%.

Question: What about the “inhibition in growth of A549 implanted tumors (in words)” value (A549 implanted tumors; group 2c, 20 mg/kg o.p. daily) of the same compound?
Answer: The value was “no inhibition”.

Question: What about the IC50 (A549 [8]; Homo sapiens) of the same compound?
Answer: The IC50 was greater than 10000 nM.
